Data as given in ChEMBL document CHEMBL4118113, “Lipophilic Efficiency as an Important Metric in Drug Design” (J Med Chem, 2018).

How the values were obtained:
[1] = Lipophilicity, log D of the compound; type: physicochemical; conditions: octanol/water
[2] = biological target: ALK tyrosine kinase receptor (Homo sapiens, UniProt Q9UM73, L1196M); test: Inhibition of ALK L1196M mutant (unknown origin)
[3] = biological target: Aldo-keto reductase family 1 member B1 (Homo sapiens, UniProt P15121); test: Inhibition of human ALR2

Chain of ALK tyrosine kinase receptor (Q9UM73 19-1620 L1196M limits assumed): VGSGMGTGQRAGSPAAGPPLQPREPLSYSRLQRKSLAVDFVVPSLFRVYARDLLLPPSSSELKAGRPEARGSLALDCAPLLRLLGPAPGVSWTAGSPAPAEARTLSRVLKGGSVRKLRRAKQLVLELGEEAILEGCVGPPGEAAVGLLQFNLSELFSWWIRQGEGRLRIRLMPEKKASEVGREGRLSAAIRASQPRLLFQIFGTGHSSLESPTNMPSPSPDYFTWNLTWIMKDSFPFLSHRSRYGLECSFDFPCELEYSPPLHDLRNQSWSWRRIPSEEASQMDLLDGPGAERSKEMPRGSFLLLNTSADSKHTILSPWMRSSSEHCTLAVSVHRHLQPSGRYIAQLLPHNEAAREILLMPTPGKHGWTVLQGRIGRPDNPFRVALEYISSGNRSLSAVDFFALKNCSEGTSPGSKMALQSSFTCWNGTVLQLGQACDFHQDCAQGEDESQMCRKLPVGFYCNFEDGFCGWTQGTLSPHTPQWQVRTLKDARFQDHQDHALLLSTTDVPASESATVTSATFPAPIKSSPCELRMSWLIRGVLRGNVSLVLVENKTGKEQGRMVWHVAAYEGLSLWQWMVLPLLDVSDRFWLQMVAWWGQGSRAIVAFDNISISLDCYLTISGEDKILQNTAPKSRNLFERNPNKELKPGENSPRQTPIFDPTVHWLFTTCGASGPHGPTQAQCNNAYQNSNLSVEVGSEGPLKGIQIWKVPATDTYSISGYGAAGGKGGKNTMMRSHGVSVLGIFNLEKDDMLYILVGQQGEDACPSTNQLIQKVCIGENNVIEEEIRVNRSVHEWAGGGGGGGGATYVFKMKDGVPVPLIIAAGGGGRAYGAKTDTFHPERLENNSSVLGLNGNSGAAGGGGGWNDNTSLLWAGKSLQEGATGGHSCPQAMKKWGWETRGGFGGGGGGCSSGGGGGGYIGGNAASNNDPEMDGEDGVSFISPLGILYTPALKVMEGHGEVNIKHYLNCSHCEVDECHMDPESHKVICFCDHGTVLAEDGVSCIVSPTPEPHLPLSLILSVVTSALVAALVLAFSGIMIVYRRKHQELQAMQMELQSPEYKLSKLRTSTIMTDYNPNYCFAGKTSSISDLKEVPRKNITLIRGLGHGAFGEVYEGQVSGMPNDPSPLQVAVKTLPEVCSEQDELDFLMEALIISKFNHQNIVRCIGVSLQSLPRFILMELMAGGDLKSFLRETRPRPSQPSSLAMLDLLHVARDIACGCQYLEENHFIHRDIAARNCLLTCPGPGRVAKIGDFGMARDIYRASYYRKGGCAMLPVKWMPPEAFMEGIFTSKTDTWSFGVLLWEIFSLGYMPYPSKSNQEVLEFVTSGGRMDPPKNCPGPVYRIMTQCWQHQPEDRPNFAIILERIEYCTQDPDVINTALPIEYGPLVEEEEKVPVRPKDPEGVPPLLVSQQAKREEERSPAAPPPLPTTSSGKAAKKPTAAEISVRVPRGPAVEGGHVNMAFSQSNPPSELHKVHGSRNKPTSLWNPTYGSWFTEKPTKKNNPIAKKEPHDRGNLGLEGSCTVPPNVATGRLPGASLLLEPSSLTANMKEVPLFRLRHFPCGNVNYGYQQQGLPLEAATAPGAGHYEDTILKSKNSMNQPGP

Row | logD [1] | Ki [2] [µM] | IC50 [3] [µM] | Compound
1 | 2.2 | 0.004 | – | C[C@H]1Oc2cc(cnc2N)-c2c(nn(C)c2C#N)CN(C)C(=O)c2ccccc21
2 | – | – | 0.55 | O=C(O)COc1cc(Cl)ccc1C(=O)NCc1ccc(Br)cc1
